Consider two compounds from the NIST ThermoML archive (doi:10.1021/je800732f).

The structures appear in SMILES notation. ± gives the expanded uncertainty stated by the source.

The data set can be described thus: cn = amount concentration of the nth substance listed, in mol/dm3. The note with it: 101 kPa, Liquid; for viscosity: Concentric cylinders viscometry, c1 = 0.025; for mass density: Vibrating tube method.

Usually viscosity stands for the internal friction of a fluid under shear. `NCC(=O)NCC(=O)O` [glycylglycine] + O: the viscosity (293.15 K) came out at 1.019 ± 0.0071 mPa·s, the viscosity (298.15 K) amounted to 0.9026 ± 0.0067 mPa·s and the viscosity (303.15 K) was 0.8068 ± 0.0064 mPa·s.
Usually mass density stands for the mass of a sample divided by its volume. Turning to `[Cl-].[Na+]` [sodium chloride] + O, the mass density reads like this: (298.15 K, c1 = 0.2091) 1005.46 ± 0.056 kg/m3; (298.15 K, c1 = 0.5066) 1015.26 ± 0.065 kg/m3; (298.15 K, c1 = 1.013) 1034.19 ± 0.085 kg/m3; (298.15 K, c1 = 1.503) 1049.73 ± 0.11 kg/m3; (298.15 K, c1 = 1.974) 1074.45 ± 0.15 kg/m3; (298.15 K, c1 = 2.45) 1088.01 ± 0.19 kg/m3.
